According to PubChem BioAssay (NCI):
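Cultured in 96-well plates, cells were exposed to test compound for 48 hours across five concentrations. Definition used: TGI = concentration required for complete inhibition of growth.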

Columns and labels:
Test in all cases: growth of human tumour cells (NCI), 48 h
786-0 renal = system: 786-0 renal
A498 renal = system: A498 renal
A549 NSCLC = system: A549 NSCLC
ACHN renal = system: ACHN renal
BT-549 breast = system: BT-549 breast
CAKI-1 renal = system: CAKI-1 renal
CCRF-CEM leukemia = system: CCRF-CEM leukemia
COLO 205 colon = system: COLO 205 colon
DU-145 prostate = system: DU-145 prostate
EKVX NSCLC = system: EKVX NSCLC
HCC-2998 colon = system: HCC-2998 colon
HCT-116 colon = system: HCT-116 colon
HCT-15 colon = system: HCT-15 colon
HL-60(TB) leukemia = system: HL-60(TB) leukemia
HOP-62 NSCLC = system: HOP-62 NSCLC
HOP-92 NSCLC = system: HOP-92 NSCLC
HS 578T breast = system: HS 578T breast
HT29 colon = system: HT29 colon
IGROV1 ovarian = system: IGROV1 ovarian
K-562 leukemia = system: K-562 leukemia
KM12 colon = system: KM12 colon
LOX IMVI melanoma = system: LOX IMVI melanoma
M14 melanoma = system: M14 melanoma
MALME-3M melanoma = system: MALME-3M melanoma
MCF7 breast = system: MCF7 breast
MDA-MB-435 = system: MDA-MB-435
MDA-N = system: MDA-N
MOLT-4 leukemia = system: MOLT-4 leukemia
NCI-H226 lung = system: NCI-H226 lung
NCI-H23 lung = system: NCI-H23 lung
NCI-H460 lung = system: NCI-H460 lung
NCI-H522 lung = system: NCI-H522 lung
NCI/ADR-RES ovarian = system: NCI/ADR-RES ovarian
OVCAR-3 ovarian = system: OVCAR-3 ovarian
OVCAR-4 ovarian = system: OVCAR-4 ovarian
OVCAR-5 ovarian = system: OVCAR-5 ovarian
OVCAR-8 ovarian = system: OVCAR-8 ovarian
PC-3 prostate = system: PC-3 prostate
RPMI-8226 leukemia = system: RPMI-8226 leukemia
RXF 393 renal = system: RXF 393 renal
SF-268 CNS = system: SF-268 CNS
SF-295 CNS = system: SF-295 CNS
SF-539 CNS = system: SF-539 CNS
SK-MEL-2 melanoma = system: SK-MEL-2 melanoma
SK-MEL-28 melanoma = system: SK-MEL-28 melanoma
SK-MEL-5 melanoma = system: SK-MEL-5 melanoma
SN12C renal = system: SN12C renal
SNB-19 CNS = system: SNB-19 CNS
SNB-75 CNS = system: SNB-75 CNS
SW-620 colon = system: SW-620 colon
T-47D breast = system: T-47D breast
TK-10 renal = system: TK-10 renal
U251 CNS = system: U251 CNS
UACC-257 melanoma = system: UACC-257 melanoma
UACC-62 melanoma = system: UACC-62 melanoma
UO-31 renal = system: UO-31 renal
MDA-MB-231 breast = system: MDA-MB-231 breast
SK-OV-3 ovarian = system: SK-OV-3 ovarian
SR leukemia = system: SR leukemia

Measured: TGI

Cc1cccc2c1C(=O)/C(=C/c1ccccc1C(=O)O)C2
not listed: MDA-MB-231 breast | SK-OV-3 ovarian | SR leukemia
> 100 µM: all other assays above

Cc1cnc2[nH]c(-c3sccc3C)cc(=O)c2c1
> 28.4 µM: RXF 393 renal
96.8 µM: HCC-2998 colon
2.96 µM: MDA-N
> 33.4 µM: M14 melanoma
> 91.6 µM: SF-539 CNS
> 40.8 µM: SNB-19 CNS
10.3 µM: HT29 colon
4.49 µM: NCI-H522 lung
39.3 µM: NCI-H226 lung
21.7 µM: SK-MEL-5 melanoma
6.01 µM: HS 578T breast
> 25.5 µM: COLO 205 colon
> 54.3 µM: UACC-62 melanoma
> 51.3 µM: KM12 colon
> 84.5 µM: MOLT-4 leukemia
not listed: HL-60(TB) leukemia | MDA-MB-435
> 100 µM: all other assays above
